Test results: publication PMC1079869 (BMC Neuroscience, 2005)
“Also recorded” adds a separate entry of the source.

Assays:
pain = tested on: pain; design: method as in 5 sources, ref 1 = [1]; PMID 3865193; doi:10.1073/pnas.82.22.7757; Yang H-YT Fratta W Majane EA Costa E Isolation, sequencing, synthesis, and pharmacological characterization of two brain neuropeptides that modulate the action of morphine Proc Natl Acad Sci U S A 198 ||| ref 4 = [4]; PMID 8821539; doi:10.1111/j.1476-5381.1996.tb15217.x; Gouarderes C Jhamandas K Sutak M Zajac JM Role of opioid receptors in the spinal antinociceptive effects of neuropeptide FF analogues Br J Pharmacol 1996 117 493 501 8821539 10.1111/j.1476-5381.1996.t ||| ref 44 = [44]; PMID 10499424; doi:10.1016/S0196-9781(99)00100-X; Xu M Kontinen VK Panula P Kalso E Effects of (1DMe)NPYF, a synthetic neuropeptide FF analogue, in different pain models Peptides 1999 20 1211 1217 10499424 10.1016/S0196-9781(99)00100-X ||| ref 4, 44 = [4]; PMID 8821539; doi:10.1111/j.1476-5381.1996.tb15217.x; Gouarderes C Jhamandas K Sutak M Zajac JM Role of opioid receptors in the spinal antinociceptive effects of neuropeptide FF analogues Br J Pharmacol 1996 117 493 501 8821539 10.1111/j.1476-5381.1996.t || [44]; PMID 10499424; doi:10.1016/S0196-9781(99)00100-X; Xu M Kontinen VK Panula P Kalso E Effects of (1DMe)NPYF, a synthetic neuropeptide FF analogue, in different pain models Peptides 1999 20 1211 1217 10499424 10.1016/S0196-9781(99)00100-X ||| ref 46 = [46]; PMID 12507715; doi:10.1016/S0304-3959(02)00333-0; Cahill CM Morinville A Hoffert C O'Donnell D Beaudet A Up-regulation and trafficking of delta opioid receptor in a model of chronic inflammation: implications for pain control Pain 2003 101 199 208 12; details: cited from earlier work; for effect on NPFF-induced analgesia / antinociception: opioid antagonist against intrathecal NPFF; for antagonism of analgesic effects of NPFF in vivo: opioid antagonists
[1] = molecular target: T1, c-MYC-tagged human delta opioid receptor (Homo sapiens, UniProt P41143); assay: FACS analysis of agonist-induced DOR internalization (cell surface fluorescence)
T1 sequence (P41143 whole entry): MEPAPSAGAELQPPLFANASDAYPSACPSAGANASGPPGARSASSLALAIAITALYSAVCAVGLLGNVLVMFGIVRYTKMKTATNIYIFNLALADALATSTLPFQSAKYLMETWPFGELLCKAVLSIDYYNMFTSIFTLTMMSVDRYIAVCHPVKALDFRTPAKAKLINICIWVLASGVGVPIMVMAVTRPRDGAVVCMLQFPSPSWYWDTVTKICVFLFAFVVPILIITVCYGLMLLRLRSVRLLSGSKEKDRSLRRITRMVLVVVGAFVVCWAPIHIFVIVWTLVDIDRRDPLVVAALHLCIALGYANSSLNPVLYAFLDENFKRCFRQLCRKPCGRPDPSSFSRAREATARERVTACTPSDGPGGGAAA
Experimental: The CHO/MYChDOR cells were collected and suspended into the culture medium. The cells were treated with drugs in suspension as for the immunocytochemistry for the indicated times. After the incubation, the membrane trafficking was stopped by rapidly chilling the cells on ice and removing the medium. After this the cells were kept on ice. The cells were washed with PBS and stained in PBS-suspension with rabbit anti-MYC antibody (1 % normal goat serum (v/v) used to block unspecific binding), followed by the detection with a fluorescent secondary antibody. Dead cells were detected with isopropidium iodide. Cells were analyzed with FACScan flow cytometer (Becton Dickinson and Co., Mountain View, CA, USA). Data from 10000 cells were collected for each run and each sample was run in replicate or triplicate.
The internalization percent was calculated as: [drawing 1] where F(ctrl) in the fluorescence of the time-matched control cells and the F(sample) is the fluorescence measured from the drug-treated cells.
10000 cells/sample were analyzed with FACS.

rat pituitary cells = details: cited from earlier work
Excerpt: The dose-dependence of NPFF-agonist on the BMAX was bell-shaped. This could imply that the NPFF-analogue affects only some conformations of the receptor. […] However, the receptor involved in the prolactin release mechanism was not characterized.

neuropathic rats = details: periaqueductal grey; cited from earlier work
Excerpt: (§1) The interaction between NPFF and opioid system in pain and analgesia seems to be complex in nature and the molecular mechanisms behind the observed physiological effects are not known. […] In the rat spinal cord, the highest NPFF-like immunoreactivity is found in the superficial layers of the dorsal h ...

presynaptic DOR = details: pontine parabrachial nucleus, via presynaptic DOR; cited from earlier work
Excerpt: as §1

[2] = tested on: opioid withdrawal syndrome; details: supraspinal administration; cited from earlier work
Excerpt: as §1

opioid receptor subtypes = details: any opioid receptor subtype; cited from earlier work
Excerpt: as §1

NPFF2R = details: cited from earlier work
Excerpt: (§2) At the physiological level NPFF seems to have both a direct analgesic effect and a modulatory effect on the opioid system. Some of the effects may be mediated via the NPFF receptors as two such receptors, NPFF1R and NPFF2R, have been identified. […] Also the other RFamide peptides bind to the NPFF receptors with varying affinities, and therefore the exact nature of the receptor-ligand interactions between RFamides and their receptors is still unclear.

NPFF1R = details: cited from earlier work
Excerpt: as §2

[3] = tested on: MAP-kinase p42MAPK (ERK2); assay: Phosphorylation of MAPK (ERK2) in CHO/MYChDOR cells, immunoblot; assay type: cell-based, Chinese hamster
Experimental: 25000 cells/well were seeded onto 24-well plates and incubated o/n. The medium was replaced with serum-free medium and the cells were incubated for one hour at 37°C. […] The reaction was stopped by removing the medium and adding modified RIPA-lysis buffer (PBS, pH 7.6; 1 % Nonidet P-40 (v/v); 0.5 % sodium deoxycholate (w/v); 0.1 % SDS (w/v), 10 mM NaF; 0.4 mM PMSF, 10 μg/ml aprotinin, 10 μg/ml leupeptin, 2 mM […]; 0.2 mM bestatin). Cells were lysed on ice for 15 min and the lysates were collected. The protein content was determined with the Bradford method.
10 μg of protein was analyzed on 10 % SDS-PAGE gel and the gel was blotted onto nitrocellulose membrane. […] After washes, the membrane was detected with the ECL-protocol. The band intensities were measured with AlphaDigiDoc1000 documentation system (Alpha Innotech, San Leandro, CA, USA). […]
Figure 6 DOR agonist induced phosphorylation of the MAP-kinase, ERK2, is increased by (1DMe)NPYF. A. Total cell lysates (10 μg protein per lane) were detected with phosphoERK2 and total ERK2 specific antibodies. […] B. The band intensities of phosphoERK2 were quantified and they are presented as relative band intensities with respect to the total ERK2. […] The statistical significance between time-points and treatments was analyzed with two-way Anova with Bonferroni's post-test, n = 5. […]

[4] = molecular target: T1, c-MYC-tagged human delta opioid receptor; assay type: cell-based
[5] = molecular target: T1, c-MYC-tagged human delta opioid receptor; assay: Tb-DeltI binding on CHO/MYChDOR whole cells, effect of (1DMe)NPYF (time-resolved fluorometry)
Experimental: 6 μg of crude membrane preparations or whole cells (25 000 cell/well) that were plated one day before experiment and fixed with 4 % PFA for 10 min at room temperature, were used in the saturation binding experiments. The whole cell assays were carried out on normal cell culture plates and the assays with membrane preparations on special filter plates (Pall Life Sciences). The cells or membranes were incubated in 50 mM Tris/HCl pH 7.5; 2.5 mM MgCl2; 60 mM NaCl; 25 μM EDTA, 0.2 % BSA (w/v) for 90 min at room temperature with 0.01 – 781.25 nM Tb-DeltI in the presence or absence of 1 or 5 μM unlabeled DeltI. To study the effect of (1DMe)NPYF on the Tb-DeltI binding, 1–1000 nM (1DMe)NPYF was added together with unlabeled DeltI. After the incubation the unbound Tb-DeltI was removed by washing the plates four times with 50 mM Tris/HCl pH 7.5; 2.5 mM MgCl2. Vacuum pump system was used to wash the filter plates. Since the chelate-bound Tb-ion is nonfluorescent, it needed to be released from the complex. In order to release Tb-ion from the chelate 150 μl Delfia enhancement solution was added to the wells and the plates were incubated on a shaker for 15 min. Thereafter, 40 μl Delfia enhancer that changes the pH of the assay solution appropriate for Tb-fluorescence was added, and the plates were further incubated for 5 min on a shaker. The time-resolved fluorescence of the released Tb-ion was measured with Victor^2 Multilabel counter (Perkin Elemer Wallac, Turku, Finland).

[6] = 100 nM (1DMe)NPYF alone, 5, 10, 30 min, 37°C

Oc1ccc2c3c1O[C@H]1c4[nH]c5ccccc5c4C[C@@]4(O)[C@@H](C2)N(CC2CC2)CC[C@]314 [naltrindole]
effect on NPFF-induced analgesia / antinociception (pain): inhibits the NPFF-induced antinociception; also recorded: reduced | antagonism of analgesic effects of NPFF in vivo (pain): blocked | block of receptor activation by DOR agonists and of enhanced activation by co-applied (1DMe)NPYF ([1]; DOR antagonist with DOR agonists ± (1DMe)NPYF): could completely block

Y-D-AFDVVG-NH2 [DeltI, peptidic DOR agonist]
enhanced antinociceptive activity correlated with receptor recruitment (pain; recruitment of spinal opioid receptors to plasma membrane, inflammation): enhanced antinociceptive activity of DeltI is correlated with the recruitment of spinal opioid receptors from intracellular stores to the plasma membrane

FLFQPQRFamide [NPFF, RFamide peptide originally isolated from bovine brain]
effect on prolactin release, dose-response (rat pituitary cells): bell-shaped dose-response curve | attenuation of tactile allodynia (neuropathic rats): selective attenuation of tactile allodynia | modulation of synaptic transmission (presynaptic DOR): modulates synaptic transmission through interaction with presynaptic DOR | opioid withdrawal syndrome [2]: precipitates opioid withdrawal syndrome | displacement of opioid receptor ligands (opioid receptor subtypes): does not displace opioid receptor ligands from any of the opioid receptor subtypes | effect on opiate-induced analgesia (pain): potentiated | analgesia, intrathecal (pain; intrathecal): long-lasting analgesia | effect on opioid antinociception (pain; supraspinal administration): attenuates opioid antinociception | binding to NPFF2R (NPFF2R): binds to both of them | binding to NPFF1R (NPFF1R): binds to both of them

D-YL-(NMe)-FQPQRF-NH2 [(1DMe)NPYF]
activation of ERK2 [3, 6]: did not result in the activation of ERK2 | effect on ERK2 activation induced by DPDPE ([3]; 100 nM (1DMe)NPYF together with 100 nM DPDPE): significantly promoted the activation induced by DPDPE | effect on DPDPE-induced cAMP inhibition [4]: had hardly an effect on the cAMP accumulation | effect on DPDPE-induced inhibition of cAMP accumulation [4]: enhanced the DOR agonist induced inhibition of cAMP accumulation significantly at all tested DPDPE concentrations | effect on the amount of cAMP [4]: did not have any significant effect on the amount of cAMP | enhancement of inhibitory effect of DOR agonists on cAMP accumulation [4]: able to enhance the inhibitory effect of other DOR agonists, e.g. DeltI | DOR internalization [1, 6]: did not induce receptor internalization at any time-point tested | cell surface fluorescence ([1]; 100 nM (1DMe)NPYF alone, 30 min, vs time-matched control cells): somewhat higher fluorescence | effect on the BMAX for Tb-DeltI ([5]; 1 nM and 10 nM (1DMe)NPYF, whole cells): significantly decreased the BMAX | effect on the KD for Tb-DeltI ([5]; 1–1000 nM (1DMe)NPYF, whole cells): only modestly affected | dose-dependence of effect on the BMAX ([5]; 1–1000 nM, whole cells): bell-shaped | effect on the BMAX for Tb-DeltI ([5]; higher concentrations of (1DMe)NPYF, whole cells): affected the BMAX only modestly | displacement of Tb-DeltI at micromolar concentration ([5]; only micromolar concentration, whole cell and membrane assays): could displace Tb-DeltI in whole cell and membrane binding assays to some extent

C=CCN1CC[C@]23c4c5ccc(O)c4O[C@H]2C(=O)CC[C@@]3(O)[C@H]1C5 [naloxone]
effect on NPFF-induced analgesia / antinociception (pain): reduced | antagonism of analgesic effects of NPFF in vivo (pain): blocked
